Data: the NIST ThermoML archive (doi:10.1016/j.jct.2007.11.010)

Assay: xn = mol fraction of the nth substance listed
Conditions: 101 kPa, Liquid

OCCN1CCOCC1 [4-morpholineethanol] + CCCCO
mass density [kg/m3]
Conditions	293.15 K	298.15 K	303.15 K	313.15 K	323.15 K
x1 = 0.0652	832.8	829	825.1	817.44	809.9
x1 = 0.1125	849.1	845.21	841.24	833.54	826.03
x1 = 0.1865	873.74	869.7	865.64	857.88	850.45
x1 = 0.2436	891.83	887.69	883.56	875.77	868.41
x1 = 0.2865	905.09	900.87	896.69	888.88	881.58
x1 = 0.3275	917.49	913.2	908.97	901.14	893.89
x1 = 0.3852	934.26	929.86	925.57	917.73	910.57
x1 = 0.4259	945.77	941.31	936.97	929.12	922.02
x1 = 0.4784	960.02	955.47	951.09	943.23	936.22
x1 = 0.5248	972.29	967.67	963.24	955.38	948.45
x1 = 0.5649	982.5	977.82	973.35	965.5	958.65
x1 = 0.6126	994.28	989.52	985.02	977.16	970.4
x1 = 0.6539	1004.15	999.34	994.8	986.96	980.27
x1 = 0.6898	1012.51	1007.64	1003.08	995.25	988.63
x1 = 0.7353	1022.74	1017.81	1013.21	1005.4	998.88
x1 = 0.7962	1035.87	1030.87	1026.23	1018.44	1012.05
x1 = 0.8367	1044.36	1039.31	1034.64	1026.87	1020.56
x1 = 0.8823	1053.64	1048.53	1043.84	1036.07	1029.88
x1 = 0.9248	1062.23	1057.07	1052.35	1044.62	1038.5
x1 = 0.9844	1073.74	1068.51	1063.75	1056.05	1050.07

OCCN1CCOCC1 [4-morpholineethanol] + CCCO
mass density [kg/m3]
Conditions	293.15 K	298.15 K	303.15 K	313.15 K	323.15 K
x1 = 0.0441	830.17	823.23	815.35	807.23	799.06
x1 = 0.1025	854.6	847.85	839.76	831.61	823.54
x1 = 0.1771	883.51	877.01	868.66	860.49	852.56
x1 = 0.2366	905.01	898.71	890.18	882	874.19
x1 = 0.2772	919.15	912.99	904.34	896.16	888.43
x1 = 0.3146	931.56	925.53	916.77	908.59	900.94
x1 = 0.3771	951.28	945.46	936.54	928.37	920.85
x1 = 0.4165	962.97	957.29	948.27	940.11	932.69
x1 = 0.478	980.28	974.81	965.64	957.51	950.23
x1 = 0.5135	989.72	984.38	975.14	967.02	959.82
x1 = 0.5792	1006.06	1000.96	991.58	983.5	976.47
x1 = 0.632	1018.06	1013.14	1003.67	995.64	988.74
x1 = 0.6797	1028.12	1023.38	1013.83	1005.84	999.07
x1 = 0.7337	1038.68	1034.12	1024.5	1016.57	1009.94
x1 = 0.7753	1046.19	1041.78	1032.12	1024.22	1017.71
x1 = 0.8136	1052.76	1048.48	1038.78	1030.93	1024.51
x1 = 0.8739	1062.19	1058.11	1048.36	1040.58	1034.34
x1 = 0.9145	1067.81	1063.88	1054.1	1046.38	1040.25
x1 = 0.9442	1071.98	1068.14	1058.34	1050.66	1044.61
x1 = 0.9742	1076.35	1072.61	1062.79	1055.14	1049.16
